From article PMC9833666, “Designing and identifying β-hairpin peptide macrocycles with antibiotic potential” (Science Advances, 2023)
Bridge positions count the residues as written; N and C are the ends. Peptide text beside a SMILES is read from it.

System: Escherichia coli W3110
Assay type: cell-based
Conditions: W3110

**Q.** With `CC[C@H](C)[C@@H]1NC(=O)[C@H]([C@@H](C)O)NC(=O)[C@H](CC(C)C)NC(=O)[C@@H](N)CSSC[C@@H](C(=O)O)NC(=O)[C@H](C(C)C)NC(=O)[C@H](CCC(=O)O)NC(=O)[C@H](C(C)C)NC(=O)[C@H](CO)NC(=O)[C@H](C(C)C)NC(=O)[C@H](CCCCN)NC(=O)[C@H](C(C)C)NC(=O)[C@H](CCCNC(=N)N)NC(=O)[C@H](CO)NC(=O)[C@H](CCCNC(=N)N)NC(=O)[C@H](CCCNC(=N)N)NC(=O)[C@H](CC(=O)O)NC(=O)[C@H](CC(=O)O)NC(=O)[C@H](CC(C)C)NC(=O)[C@H](CCCNC(=N)N)NC1=O` [SyRA-1] (H-CLTIRLDDRRSRVKVSVEVC-OH; disulfide 1-20) as the molecule, how does the “W3110 MIC” value read?
**A.** Its value is greater than 256 µg/mL.

**Q.** With `CC[C@H](C)[C@@H]1NC(=O)[C@H](CCCNC(=N)N)NC(=O)[C@H](CC(C)C)NC(=O)[C@@H](N)CSSC[C@@H](C(=O)O)NC(=O)[C@H](C(C)C)NC(=O)[C@H](CCC(N)=O)NC(=O)[C@H](C(C)C)NC(=O)[C@H]([C@@H](C)O)NC(=O)[C@H]([C@@H](C)CC)NC(=O)[C@H](CCCNC(=N)N)NC(=O)[C@H](C(C)C)NC(=O)CNC(=O)CNC(=O)[C@H](CCCNC(=N)N)NC(=O)[C@H](CCCNC(=N)N)NC(=O)[C@H](CC(N)=O)NC(=O)[C@H](CC(N)=O)NC(=O)[C@H](C(C)C)NC(=O)[C@H](CCCNC(=N)N)NC1=O` [SyRA-2] (H-CLRIRVNNRRGGVRITVQVC-OH; disulfide 1-20) as the molecule, how does the “W3110 MIC” value read?
**A.** The value was greater than 256 µg/mL.

**Q.** How did the “W3110 MIC” value turn out when `CC(C)C[C@@H]1NC(=O)[C@H](CCCNC(=N)N)NC(=O)[C@H](C(C)C)NC(=O)[C@H](CCCNC(=N)N)NC(=O)[C@H](CC(C)C)NC(=O)[C@@H](N)CSSC[C@@H](C(=O)O)NC(=O)[C@H](C(C)C)NC(=O)[C@H](CCC(N)=O)NC(=O)[C@H](C(C)C)NC(=O)[C@H](CO)NC(=O)[C@H](C(C)C)NC(=O)[C@H](CCCCN)NC(=O)[C@H](C(C)C)NC(=O)[C@H](CCCNC(=N)N)NC(=O)[C@H](CCCNC(=N)N)NC(=O)CNC(=O)CNC(=O)[C@H](CC(N)=O)NC(=O)[C@H](CC(N)=O)NC1=O` [SyRA-3] (H-CLRVRLNNGGRRVKVSVQVC-OH; disulfide 1-20) was run?
**A.** The value was greater than 256 µg/mL.

**Q.** With `CC[C@H](C)[C@@H]1NC(=O)[C@H](CCCCN)NC(=O)[C@H](C(C)C)NC(=O)[C@H](CCCNC(=N)N)NC(=O)[C@H](CO)NC(=O)[C@H](CCCNC(=N)N)NC(=O)[C@H](CCCNC(=N)N)NC(=O)[C@H](CC(N)=O)NC(=O)[C@H](CC(=O)O)NC(=O)[C@H](C(C)C)NC(=O)[C@H](CCCNC(=N)N)NC(=O)[C@H]([C@@H](C)CC)NC(=O)[C@H]([C@@H](C)O)NC(=O)[C@H](CC(C)C)NC(=O)[C@@H](N)CSSC[C@@H](C(=O)O)NC(=O)[C@H](C(C)C)NC(=O)[C@H](CCC(=O)O)NC(=O)[C@H](CC(C)C)NC(=O)[C@H]([C@@H](C)O)NC1=O` [SyRA-4] (H-CLTIRVDNRRSRVKITLEVC-OH; disulfide 1-20) as the molecule, how does the “W3110 MIC” value read?
**A.** Its value is greater than 256 µg/mL.

**Q.** `CC[C@H](C)[C@@H]1NC(=O)[C@H](CCCNC(=N)N)NC(=O)[C@H](C(C)C)NC(=O)CNC(=O)[C@H](CCCNC(=N)N)NC(=O)CNC(=O)CNC(=O)[C@H](CC(N)=O)NC(=O)[C@H](CC(=O)O)NC(=O)[C@H](CC(C)C)NC(=O)[C@H](CCCNC(=N)N)NC(=O)[C@H]([C@@H](C)CC)NC(=O)[C@H]([C@@H](C)O)NC(=O)[C@H](CC(C)C)NC(=O)[C@@H](N)CSSC[C@@H](C(=O)O)NC(=O)[C@H](C(C)C)NC(=O)[C@H](CCC(N)=O)NC(=O)[C@H](CC(C)C)NC(=O)[C@H](CO)NC1=O` [SyRA-5] (H-CLTIRLDNGGRGVRISLQVC-OH; disulfide 1-20) was tested. Which “W3110 MIC” value did it give?
**A.** Its value is greater than 256 µg/mL.

**Q.** How did the “W3110 MIC” value turn out when `CC[C@H](C)[C@@H]1NC(=O)[C@H](CCCNC(=N)N)NC(=O)[C@H](C(C)C)NC(=O)CNC(=O)[C@H](CO)NC(=O)CNC(=O)CNC(=O)[C@H](CC(=O)O)NC(=O)[C@H](CC(N)=O)NC(=O)[C@H](CC(C)C)NC(=O)[C@H](CCCNC(=N)N)NC(=O)[C@H](C(C)C)NC(=O)[C@H](CCCNC(=N)N)NC(=O)[C@H](C(C)C)NC(=O)[C@@H](N)CSSC[C@@H](C(=O)O)NC(=O)[C@H](C(C)C)NC(=O)[C@H](CCC(N)=O)NC(=O)[C@H](C(C)C)NC(=O)[C@H](CO)NC1=O` [SyRA-6] (H-CVRVRLNDGGSGVRISVQVC-OH; disulfide 1-20) was run?
**A.** The value was greater than 256 µg/mL.

**Q.** Which “W3110 MIC” value does the source give for `CC[C@H](C)[C@@H]1NC(=O)[C@H](CCCCN)NC(=O)[C@H](C(C)C)NC(=O)CNC(=O)[C@H](CCCNC(=N)N)NC(=O)[C@H](CCCNC(=N)N)NC(=O)[C@H](CCCNC(=N)N)NC(=O)[C@H](CC(=O)O)NC(=O)[C@H](CC(N)=O)NC(=O)[C@H](CC(C)C)NC(=O)[C@H](CCCNC(=N)N)NC(=O)[C@H]([C@@H](C)CC)NC(=O)[C@H]([C@@H](C)O)NC(=O)[C@H](C(C)C)NC(=O)[C@@H](N)CSSC[C@@H](C(=O)O)NC(=O)[C@H](C(C)C)NC(=O)[C@H](CCC(=O)O)NC(=O)[C@H](C(C)C)NC(=O)[C@H](CO)NC1=O` [SyRA-7] (H-CVTIRLNDRRRGVKISVEVC-OH; disulfide 1-20) here?
**A.** Its value is greater than 256 µg/mL.

**Q.** How did the “W3110 MIC” value turn out when `CC[C@H](C)[C@@H]1NC(=O)[C@H]([C@@H](C)O)NC(=O)[C@H](C(C)C)NC(=O)[C@@H](N)CSSC[C@@H](C(=O)O)NC(=O)[C@H](C(C)C)NC(=O)[C@H](CCC(=O)O)NC(=O)[C@H](C(C)C)NC(=O)[C@H]([C@@H](C)O)NC(=O)[C@H](C(C)C)NC(=O)[C@H](CCCCN)NC(=O)[C@H](C(C)C)NC(=O)CNC(=O)CNC(=O)[C@H](CCCNC(=N)N)NC(=O)CNC(=O)[C@H](CC(N)=O)NC(=O)[C@H](CC(=O)O)NC(=O)[C@H](C(C)C)NC(=O)[C@H](CCCNC(=N)N)NC1=O` [SyRA-8] (H-CVTIRVDNGRGGVKVTVEVC-OH; disulfide 1-20) was run?
**A.** Its value is greater than 256 µg/mL.

**Q.** `CC[C@H](C)[C@@H]1NC(=O)[C@H]([C@@H](C)O)NC(=O)[C@H](C(C)C)NC(=O)[C@@H](N)CSSC[C@@H](C(=O)O)NC(=O)[C@H](C(C)C)NC(=O)[C@H](CCC(N)=O)NC(=O)[C@H](C(C)C)NC(=O)[C@H]([C@@H](C)O)NC(=O)[C@H](C(C)C)NC(=O)[C@H](CCCNC(=N)N)NC(=O)[C@H](CC(C)C)NC(=O)CNC(=O)[C@H](CCCNC(=N)N)NC(=O)[C@H](CCCNC(=N)N)NC(=O)[C@H](CCCNC(=N)N)NC(=O)[C@H](CC(=O)O)NC(=O)[C@H](CC(=O)O)NC(=O)[C@H](CC(C)C)NC(=O)[C@H](CCCNC(=N)N)NC1=O` [SyRA-9] (H-CVTIRLDDRRRGLRVTVQVC-OH; disulfide 1-20) was tested. Which “W3110 MIC” value did it give?
**A.** The value was greater than 256 µg/mL.

**Q.** For `CC[C@H](C)[C@@H]1NC(=O)[C@H](CCCNC(=N)N)NC(=O)[C@H](C(C)C)NC(=O)[C@H](CCCNC(=N)N)NC(=O)[C@H](CO)NC(=O)CNC(=O)CNC(=O)[C@H](CC(N)=O)NC(=O)[C@H](CC(N)=O)NC(=O)[C@H](C(C)C)NC(=O)[C@H](CCCNC(=N)N)NC(=O)[C@H]([C@@H](C)CC)NC(=O)[C@H](CCCNC(=N)N)NC(=O)[C@H](CC(C)C)NC(=O)[C@@H](N)CSSC[C@@H](C(=O)O)NC(=O)[C@H](C(C)C)NC(=O)[C@H](CCC(=O)O)NC(=O)[C@H](CC(C)C)NC(=O)[C@H](CO)NC1=O` [SyRA-10] (H-CLRIRVNNGGSRVRISLEVC-OH; disulfide 1-20), which “W3110 MIC” value is on record?
**A.** The value was greater than 256 µg/mL.

**Q.** For `CC[C@H](C)[C@@H]1NC(=O)[C@H](CCCCN)NC(=O)[C@H](CC(C)C)NC(=O)CNC(=O)CNC(=O)[C@H](CCCNC(=N)N)NC(=O)[C@H](CCCNC(=N)N)NC(=O)[C@H](CC(=O)O)NC(=O)[C@H](CC(=O)O)NC(=O)[C@H](C(C)C)NC(=O)[C@H](CCCNC(=N)N)NC(=O)[C@H](C(C)C)NC(=O)[C@H](CCCNC(=N)N)NC(=O)[C@H](C(C)C)NC(=O)[C@@H](N)CSSC[C@@H](C(=O)O)NC(=O)[C@H](C(C)C)NC(=O)[C@H](CCC(N)=O)NC(=O)[C@H](CC(C)C)NC(=O)[C@H](CO)NC1=O` [SyRA-12] (H-CVRVRVDDRRGGLKISLQVC-OH; disulfide 1-20), which “W3110 MIC” value is on record?
**A.** Its value is greater than 256 µg/mL.

**Q.** `CC[C@H](C)[C@@H]1NC(=O)[C@H](CCCNC(=N)N)NC(=O)[C@H](C(C)C)NC(=O)CNC(=O)[C@H](CO)NC(=O)[C@H](CCCNC(=N)N)NC(=O)CNC(=O)[C@H](CC(N)=O)NC(=O)[C@H](CC(=O)O)NC(=O)[C@H](CC(C)C)NC(=O)[C@H](CCCNC(=N)N)NC(=O)[C@H](C(C)C)NC(=O)[C@H]([C@@H](C)O)NC(=O)[C@H](C(C)C)NC(=O)[C@@H](N)CSSC[C@@H](C(=O)O)NC(=O)[C@H](C(C)C)NC(=O)[C@H](CCC(N)=O)NC(=O)[C@H](C(C)C)NC(=O)[C@H](CO)NC1=O` [SyRA-13] (H-CVTVRLDNGRSGVRISVQVC-OH; disulfide 1-20) was tested. Which “W3110 MIC” value did it give?
**A.** Its value is greater than 256 µg/mL.

**Q.** `CC[C@H](C)[C@@H]1NC(=O)[C@H](CCCCN)NC(=O)[C@H](CC(C)C)NC(=O)[C@H](CCCNC(=N)N)NC(=O)CNC(=O)CNC(=O)[C@H](CCCNC(=N)N)NC(=O)[C@H](CC(N)=O)NC(=O)[C@H](CC(N)=O)NC(=O)[C@H](C(C)C)NC(=O)[C@H](CCCNC(=N)N)NC(=O)[C@H](C(C)C)NC(=O)[C@H]([C@@H](C)O)NC(=O)[C@H](C(C)C)NC(=O)[C@@H](N)CSSC[C@@H](C(=O)O)NC(=O)[C@H](C(C)C)NC(=O)[C@H](CCC(N)=O)NC(=O)[C@H](CC(C)C)NC(=O)[C@H]([C@@H](C)O)NC1=O` [SyRA-14] (H-CVTVRVNNRGGRLKITLQVC-OH; disulfide 1-20) was tested. Which “W3110 MIC” value did it give?
**A.** The value was greater than 256 µg/mL.

**Q.** Which “W3110 MIC” value does the source give for `CC[C@H](C)[C@@H]1NC(=O)[C@H](CCCNC(=N)N)NC(=O)[C@H](CC(C)C)NC(=O)[C@H](CCCNC(=N)N)NC(=O)[C@H](CO)NC(=O)[C@H](CCCNC(=N)N)NC(=O)[C@H](CCCNC(=N)N)NC(=O)[C@H](CC(=O)O)NC(=O)[C@H](CC(N)=O)NC(=O)[C@H](CC(C)C)NC(=O)[C@H](CCCNC(=N)N)NC(=O)[C@H](C(C)C)NC(=O)[C@H]([C@@H](C)O)NC(=O)[C@H](C(C)C)NC(=O)[C@@H](N)CSSC[C@@H](C(=O)O)NC(=O)[C@H](C(C)C)NC(=O)[C@H](CCC(=O)O)NC(=O)[C@H](CC(C)C)NC(=O)[C@H]([C@@H](C)O)NC1=O` [SyRA-15] (H-CVTVRLNDRRSRLRITLEVC-OH; disulfide 1-20) here?
**A.** The value was greater than 256 µg/mL.

**Q.** How did the “W3110 MIC” value turn out when `CC[C@H](C)[C@@H]1NC(=O)[C@H](CCCNC(=N)N)NC(=O)[C@H](C(C)C)NC(=O)[C@H](CCCNC(=N)N)NC(=O)[C@@H](N)CSSC[C@@H](C(=O)O)NC(=O)[C@H](CCC(=O)O)NC(=O)[C@H](C(C)C)NC(=O)[C@H](CCC(N)=O)NC(=O)[C@H](CC(C)C)NC(=O)[C@H](CCCCN)NC(=O)[C@H](CC(C)C)NC(=O)[C@H](CCCNC(=N)N)NC(=O)CNC(=O)[C@H](CCCNC(=N)N)NC(=O)[C@H](CCCNC(=N)N)NC(=O)[C@H](CC(=O)O)NC(=O)[C@H](CC(=O)O)NC(=O)[C@H](C(C)C)NC(=O)[C@H](CC(N)=O)NC1=O` [SyRC-1] (H-CRVRINVDDRRGRLKLQVEC-OH; disulfide 1-20) was run?
**A.** The value was greater than 256 µg/mL.
